Assay results taken from paper doi:10.1101/2021.09.30.462664v1 (biorxiv, 2021).
Residue numbers refer to the chain shown, from its start. pEC50: −log10 of the molar value.

Columns and labels:
Test in all cases: whole-cell patch clamp, V0.[…] shift, Hill fit
Assay type in all cases: cell-based
[1] = target: KCNQ2/3 channel (KCNQ2/3 heteromers) (Homo sapiens, UniProt O43525+O43526)
[2] = target: T1, KCNQ3 (homomer; KCNQ3T = KCNQ3-A315T) (Homo sapiens, UniProt O43525, A315T/F167A)
T1 sequence (O43525 1-872 F167A/A315T): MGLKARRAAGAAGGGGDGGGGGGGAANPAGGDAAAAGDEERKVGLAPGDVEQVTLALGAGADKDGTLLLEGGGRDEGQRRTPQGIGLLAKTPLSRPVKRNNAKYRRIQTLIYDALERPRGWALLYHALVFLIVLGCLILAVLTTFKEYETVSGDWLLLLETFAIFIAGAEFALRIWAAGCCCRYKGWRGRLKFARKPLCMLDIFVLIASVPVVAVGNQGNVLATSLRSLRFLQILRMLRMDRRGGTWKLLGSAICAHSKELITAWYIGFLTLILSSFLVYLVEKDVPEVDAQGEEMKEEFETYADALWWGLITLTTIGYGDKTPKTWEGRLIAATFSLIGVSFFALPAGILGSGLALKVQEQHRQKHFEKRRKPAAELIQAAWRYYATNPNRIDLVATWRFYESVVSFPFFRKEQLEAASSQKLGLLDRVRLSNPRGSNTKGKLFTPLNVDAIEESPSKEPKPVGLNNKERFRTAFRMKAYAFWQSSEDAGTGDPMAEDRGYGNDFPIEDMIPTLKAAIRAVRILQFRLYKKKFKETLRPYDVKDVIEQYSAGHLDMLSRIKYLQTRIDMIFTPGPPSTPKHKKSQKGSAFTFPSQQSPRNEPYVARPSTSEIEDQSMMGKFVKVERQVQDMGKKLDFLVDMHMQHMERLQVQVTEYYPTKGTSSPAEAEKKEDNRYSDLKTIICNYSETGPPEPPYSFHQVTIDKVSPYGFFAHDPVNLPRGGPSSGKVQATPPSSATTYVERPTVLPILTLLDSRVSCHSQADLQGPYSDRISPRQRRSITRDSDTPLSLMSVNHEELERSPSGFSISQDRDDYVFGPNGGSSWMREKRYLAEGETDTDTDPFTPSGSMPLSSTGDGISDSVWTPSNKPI

[3] = target: T2, KCNQ3 (homomer; KCNQ3T = KCNQ3-A315T) (Homo sapiens, UniProt O43525, A315T/S209A)
T2 sequence (O43525 1-872 S209A/A315T): T1 sequence (O43525 1-872 F167A/A315T) with A167F, S209A

[4] = target: T3, KCNQ3 (homomer; KCNQ3T = KCNQ3-A315T) (Homo sapiens, UniProt O43525, A315T)
T3 sequence (O43525 1-872 A315T): T1 sequence (O43525 1-872 F167A/A315T) with A167F

KCNQ2/3 channel (KCNQ2/3 heteromers), sequence (O43525 whole entry): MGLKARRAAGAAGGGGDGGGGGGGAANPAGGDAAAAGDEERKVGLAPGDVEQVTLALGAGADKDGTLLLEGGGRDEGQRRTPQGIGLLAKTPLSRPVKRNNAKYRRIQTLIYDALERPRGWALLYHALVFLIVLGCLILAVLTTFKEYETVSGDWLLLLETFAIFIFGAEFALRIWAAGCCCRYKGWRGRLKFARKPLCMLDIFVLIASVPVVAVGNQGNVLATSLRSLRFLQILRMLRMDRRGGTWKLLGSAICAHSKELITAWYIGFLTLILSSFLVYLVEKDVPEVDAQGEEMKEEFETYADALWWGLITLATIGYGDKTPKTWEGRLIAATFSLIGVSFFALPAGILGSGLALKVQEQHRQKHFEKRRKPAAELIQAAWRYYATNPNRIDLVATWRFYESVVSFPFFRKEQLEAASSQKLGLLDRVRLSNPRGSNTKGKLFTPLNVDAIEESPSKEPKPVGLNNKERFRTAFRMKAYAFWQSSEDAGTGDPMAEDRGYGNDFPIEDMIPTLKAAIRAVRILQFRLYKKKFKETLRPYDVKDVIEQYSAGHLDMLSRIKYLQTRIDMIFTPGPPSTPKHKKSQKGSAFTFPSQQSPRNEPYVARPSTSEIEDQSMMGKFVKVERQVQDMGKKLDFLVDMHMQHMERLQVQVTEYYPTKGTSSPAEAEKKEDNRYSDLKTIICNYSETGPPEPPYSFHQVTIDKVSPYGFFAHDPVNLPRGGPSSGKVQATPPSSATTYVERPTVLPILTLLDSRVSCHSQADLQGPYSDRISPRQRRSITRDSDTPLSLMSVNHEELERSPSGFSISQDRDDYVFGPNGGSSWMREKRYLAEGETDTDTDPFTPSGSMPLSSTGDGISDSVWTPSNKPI
KCNQ2/3 channel (KCNQ2/3 heteromers), sequence (O43526 whole entry): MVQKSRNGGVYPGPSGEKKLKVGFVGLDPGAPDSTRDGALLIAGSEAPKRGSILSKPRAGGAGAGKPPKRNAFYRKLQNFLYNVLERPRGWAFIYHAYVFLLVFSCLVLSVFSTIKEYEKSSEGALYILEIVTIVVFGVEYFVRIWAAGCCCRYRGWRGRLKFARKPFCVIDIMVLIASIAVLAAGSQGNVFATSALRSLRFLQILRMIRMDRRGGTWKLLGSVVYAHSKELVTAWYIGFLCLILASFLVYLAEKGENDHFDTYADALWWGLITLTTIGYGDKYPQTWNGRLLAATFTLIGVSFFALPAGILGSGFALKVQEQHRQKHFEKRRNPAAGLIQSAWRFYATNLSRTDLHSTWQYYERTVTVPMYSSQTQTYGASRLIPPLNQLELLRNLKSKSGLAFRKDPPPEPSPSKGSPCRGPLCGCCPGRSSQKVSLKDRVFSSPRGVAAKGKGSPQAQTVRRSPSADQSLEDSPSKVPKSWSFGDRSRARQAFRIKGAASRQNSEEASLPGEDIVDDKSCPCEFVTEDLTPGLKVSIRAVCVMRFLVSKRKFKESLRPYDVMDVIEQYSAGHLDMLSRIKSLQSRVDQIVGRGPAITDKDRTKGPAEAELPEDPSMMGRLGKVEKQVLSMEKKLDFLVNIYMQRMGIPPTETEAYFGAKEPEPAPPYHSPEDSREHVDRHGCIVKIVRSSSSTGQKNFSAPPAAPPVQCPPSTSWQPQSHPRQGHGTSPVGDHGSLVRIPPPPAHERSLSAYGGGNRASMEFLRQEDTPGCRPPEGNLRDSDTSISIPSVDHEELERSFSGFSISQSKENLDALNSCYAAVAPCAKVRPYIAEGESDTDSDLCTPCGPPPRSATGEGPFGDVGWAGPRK

Row | Structure (SMILES) | pEC50 [1] | pEC50 [2] | pEC50 [3] | pEC50 [4]
1 | CCOC(=O)Nc1ccc(NCc2ccc(F)cc2)cc1N [retigabine] | 5.44 | – | – | –
2 | Oc1cc(Cl)ccc1Oc1ccc(Cl)cc1Cl [triclosan] | 4.49 | 4.38 | 4.34 | 4.42
